Laboratory results from patent US20240075041A1, “TREATMENT OF EOSINOPHILIC DISORDERS WITH AVAPRITINIB” (Blueprint Medicines Corporation, priority 2019, published 2024).
Entries after “also recorded” stand apart in the source; their conditions may differ.

Legend:
eosinophils = experiment: Measurement of absolute eosinophils in Phase 1 clinical trial patients (routine blood test at C1D15); format: in vivo, human; conditions: adult patients with AdvSM, oral Compound (I) 30 mg to 400 mg QD, C1D15 (after 2 weeks), baseline absolute eosinophil count >0.5, FIGS. 1-4
Description: The dose range of Compound (I) is between 30 mg and 400 mg. The patients with baseline absolute eosinophil count of >0.5.
The patients with baseline absolute eosinophil count of >0.5.
The dose range of Compound (I) is between 200 mg and 300 mg. The patients with baseline absolute eosinophil count of >0.5.
(§1) This is a Phase 1, open-label, study designed to evaluate the safety, tolerability, PK, PD, and preliminary antineoplastic activity of Compound (I), administered orally, in adult patients with advanced systemic mastocytosis (AdvSM) and relapsed or refractory myeloid malignancies.
(§2) The study consists of 2 parts: dose-escalation (Part 1) and expansion (Part 2). Approximately 25 patients were in Part 1 and approximately 55 patients were in Part 2.
A treatment cycle is 28 days in duration. Patients presented to the study center on C1D1 for the first dose of study drug and serial PK sampling, PD sample collection, vital sign measurement, electrocardiogram (ECG) monitoring, patient general impression of symptom severity (PGIS) and European Organization for Research and Treatment of Cancer Core Quality of Life Questionnaire (EORTC QLQ-C30), safety monitoring and adverse event (AE) recording.
Eosinophils in patients were measured at C1D15 (cycle 1, day 15) via a routine blood test, see, e.g., LaGow B et al., eds. PDR Lab Advisor. A Comprehensive Point-of-Care Guide for Over 600 Lab Tests. 1st ed. […]

KIT D816V = KIT D816V (Homo sapiens, UniProt P10721, D816V); experiment: Activity against KIT D816V in vitro; format: biochemical
[1] = system: tyrosine kinase inhibitor (TKI)-resistant mastocytoma model; experiment: TKI-resistant mastocytoma model in vivo
[2] = Toxicology and safety pharmacology studies; format: in vivo; conditions: at active doses
[3] = Phase 1 dose escalation in advanced systemic mastocytosis (NCT02561988); format: in vivo; conditions: patients with advanced systemic mastocytosis, Phase 1 study, oral
Description: as §1, §2
Patients with AdvSM or a relapsed or refractory myeloid malignancy were enrolled in the dose escalation part of the study. A 3+3 dose-escalation design using cohorts of 3 patients were employed.
The first cohort of patients received Compound (I) at a starting dose of 30 mg once daily (QD). Dose escalation proceeded at increments up to 100% until ≥1 patient treated at a given dose level has a ≥Grade 2 non-hematologic AE or a Grade 4 hematologic AE and the AE (non-hematologic or hematologic) was not clearly attributable to a cause other than Compound (I) or the dose exceeds the highest dose determined to be safe in the ongoing Compound (I) first-in-human (FIH) study in GIST, BLU-285-1101.
Three patients were enrolled initially in each cohort and an additional 3 patients (for a total of 6) were enrolled when the cohort requires expansion due to dose-limiting toxicity (DLT). […]

Sequence of KIT D816V (P10721 26-976 D816V): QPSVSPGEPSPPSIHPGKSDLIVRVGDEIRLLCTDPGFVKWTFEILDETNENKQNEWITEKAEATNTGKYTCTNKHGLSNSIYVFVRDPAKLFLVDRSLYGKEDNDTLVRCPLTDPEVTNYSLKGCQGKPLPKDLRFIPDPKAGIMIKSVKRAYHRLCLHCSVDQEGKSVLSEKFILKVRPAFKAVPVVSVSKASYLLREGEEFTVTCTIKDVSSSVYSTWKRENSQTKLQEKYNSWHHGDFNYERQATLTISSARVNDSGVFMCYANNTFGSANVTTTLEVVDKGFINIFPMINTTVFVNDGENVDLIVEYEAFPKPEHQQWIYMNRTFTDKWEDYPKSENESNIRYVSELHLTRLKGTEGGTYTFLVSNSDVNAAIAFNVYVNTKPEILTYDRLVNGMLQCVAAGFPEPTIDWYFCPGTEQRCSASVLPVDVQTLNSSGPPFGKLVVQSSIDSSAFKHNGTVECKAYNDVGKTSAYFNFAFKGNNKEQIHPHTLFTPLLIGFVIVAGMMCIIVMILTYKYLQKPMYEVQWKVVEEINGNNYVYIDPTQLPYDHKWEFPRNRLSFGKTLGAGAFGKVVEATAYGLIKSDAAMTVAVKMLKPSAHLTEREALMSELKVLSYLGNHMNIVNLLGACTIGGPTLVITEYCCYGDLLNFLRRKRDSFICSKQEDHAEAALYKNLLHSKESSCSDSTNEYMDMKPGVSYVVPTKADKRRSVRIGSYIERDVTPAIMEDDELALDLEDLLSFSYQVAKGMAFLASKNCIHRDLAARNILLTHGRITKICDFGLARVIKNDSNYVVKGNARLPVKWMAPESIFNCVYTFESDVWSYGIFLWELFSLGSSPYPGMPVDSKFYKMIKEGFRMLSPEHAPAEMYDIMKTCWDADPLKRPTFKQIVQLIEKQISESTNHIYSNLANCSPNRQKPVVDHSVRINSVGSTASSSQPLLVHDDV

**Q.** For Cn1cc(-c2cc3c(N4CCN(c5ncc([C@@](C)(N)c6ccc(F)cc6)cn5)CC4)ncnn3c2)cn1 [Compound (I), (S)-1-(4-fluorophenyl)-1-(2-(4-(6-(1-methyl-1H-pyrazol-4-yl)pyrrolo[2,1-f][1,2,4]triazin-4-yl)piperazin-yl)pyrimidin-5-yl)ethan-1-amine], which “absolute eosinophil changes from baseline levels” value (eosinophils) is on record?
**A.** significantly decreases number of absolute eosinophils; also recorded: effectively reduces eosinophil levels

**Q.** What about the “activity against KIT D816V in vitro” value (KIT D816V) of the same molecule?
**A.** potent and selective activity

**Q.** And the “growth inhibition in TKI-resistant mastocytoma model” value [1]?
**A.** robust growth inhibition

**Q.** What about the tolerability [2] of the same molecule?
**A.** tolerability at active doses

**Q.** What about the “recommended Phase 2 dose (RP2D)” value [3] of the same molecule?
**A.** 300 mg once a day (QD)
